Experiments:
[1] = system: Follicular dendritic cells (FDCs); assay: Flow cytometry of follicular dendritic cells (CD3-CD19-CD21+/CD35+) in PBMCs; format: cell-based, human; conditions: high concentration of E6446 (10 uM), with TLR7/8 agonist
Experimental: FIGS. 12A-12G show the interactive effects between synthesized TLR7/8 agonist and TLR9 antagonist in stimulating anti-OVA antibody production in PBMCs. At low concentrations (0.02-0.2 uM), the E6446 enhanced the effect of synthesized TLR7/8, whereas at a high concentration (10 uM), E6446 inhibited this effect. Enzyme-linked immunosorbent assay (ELISA) analysis of OVA-specific antibodies of IgG (FIGS. 12A and 12D) and IgM (FIGS. 12B and 12E) responses were performed 7 days or 14 days after stimulant incubation. Cell proliferation (FIGS. 12C and 12F) was assayed by CellTiter-glo kit. Cells were harvested and tested by Flow cytometry (G). Follicular dendritic cells (FDCs) cells were gated as CD3^−CD19^−CD21^+/CD35^+ cells. Note. CD35 and CD21 are dendritic cell (DC) markers which may represent two subpopulations of DCs. The CD21-sub-type is inhibited by high concentration of E6446. […] The data represented the mean of 3 replicates; error bars represented SD. […]

TLR9 = target: T1, TLR9 (Homo sapiens, UniProt Q9NR96); assay: Inhibition of CpG2006 (TLR9 agonist) by E6446; format: cell-based; conditions: data not shown
T1 sequence (Q9NR96 26-1032): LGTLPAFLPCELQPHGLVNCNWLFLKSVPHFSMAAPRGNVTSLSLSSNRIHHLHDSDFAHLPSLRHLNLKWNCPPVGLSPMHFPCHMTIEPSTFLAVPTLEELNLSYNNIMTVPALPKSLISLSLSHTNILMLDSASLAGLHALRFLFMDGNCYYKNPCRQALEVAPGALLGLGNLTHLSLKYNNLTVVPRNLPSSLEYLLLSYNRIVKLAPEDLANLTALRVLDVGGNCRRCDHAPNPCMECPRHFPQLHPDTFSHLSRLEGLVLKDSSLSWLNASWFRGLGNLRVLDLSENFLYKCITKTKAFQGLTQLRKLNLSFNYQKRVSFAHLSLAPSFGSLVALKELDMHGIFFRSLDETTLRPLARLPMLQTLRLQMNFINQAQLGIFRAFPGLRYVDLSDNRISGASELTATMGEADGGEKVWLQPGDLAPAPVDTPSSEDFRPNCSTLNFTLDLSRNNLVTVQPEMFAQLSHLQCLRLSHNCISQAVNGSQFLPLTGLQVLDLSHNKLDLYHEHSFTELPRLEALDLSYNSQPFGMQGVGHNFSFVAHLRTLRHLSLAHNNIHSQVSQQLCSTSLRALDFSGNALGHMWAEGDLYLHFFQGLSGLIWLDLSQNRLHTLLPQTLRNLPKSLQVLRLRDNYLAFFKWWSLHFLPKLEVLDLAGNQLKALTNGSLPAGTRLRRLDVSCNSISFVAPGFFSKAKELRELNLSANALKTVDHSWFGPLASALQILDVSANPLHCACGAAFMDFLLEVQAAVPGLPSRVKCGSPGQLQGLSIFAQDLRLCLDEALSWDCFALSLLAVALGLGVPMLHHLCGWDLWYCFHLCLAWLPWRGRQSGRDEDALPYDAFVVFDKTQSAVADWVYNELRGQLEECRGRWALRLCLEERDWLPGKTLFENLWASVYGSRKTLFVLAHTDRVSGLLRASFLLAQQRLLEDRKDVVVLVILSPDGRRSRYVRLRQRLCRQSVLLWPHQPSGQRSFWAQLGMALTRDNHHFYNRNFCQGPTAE
Experimental: (§1) E6446 dihydrochloride (E6446-HCL), a synthetic nucleic acid-sensing TLRs antagonist. It's IC50 for CpG2006 (TLR9 agonist) was in the range of 0.01-0.03 uM (data not shown). But it required 2-8 uM (a 100-fold higher concentration) to inhibit the effect of R848 (TLR7/8 agonist) (data not shown).

TLR7/8 = assay: Inhibition of the effect of R848 (TLR7/8 agonist) by E6446; format: cell-based
Experimental: as §1

PBMCs = assay: In vitro immunization (IVI) of PBMCs, antigen-specific IgG/IgM production by ELISA; format: cell-based, human; conditions: 500 nM synthesized TLR7/8 agonist
Experimental: PBMCs were washed and diluted with PIV culture medium. Cell density was adjusted to 1*10^^7 cells/ml, treateder with 0.25 mM LLME for about 20 min. Discarded supernatant, and re-suspended cell with PIV culture medium. Adjusted cell density to 9*10^^5 cells/ml. […] Cultured the tissue for 7 days at 37° C., 5% CO2. Changed half of the medium and added factor cocktail on day 7. Cultured the cells for 7-21 days at 37° C., 5% CO2. Collected the supernatant on day 7, day 14, or day 21 for analysis of antibody production by ELISA, whereas the pellets are used for testing gene expression by PCR or RT-PCR. The collected cells were also tested in ELISpot assay for FACS analysis.
Exemplary IVI steps with addition of stimulate factors: • 1. Prepared PBMCs and treat them with LLME. • 2. […] Collected the cells and plate them into 96-well plate at a density of 6*10^4/well. • 4. […] The IgG and IgM level was examined with ELISA assay.
After day7 or day14 with addition of cytokines or antibody-enhancing composition and antigens, supernatants were harvested and added to antigen OVA-coated plates. After 2 hr incubation, a HRP-conjugated anti-human IgG or anti-human IgM was added, the amount of antigen-specific antibody was measured using TMB as substrate. The data represents the mean of 2 replicates; error bars represent SD. One representative data of 3 separate experiments is shown.
Plates were coated with antigen at 5 μg/ml overnight at 4° C. and washed them in PBST (containing 0.5% Tween-20). The plates were blocked with 5% BSA before addition of cell culture supernatants and horseradish peroxidase (HRP)-conjugated detection antibodies (dilutions: 1 in 2,500 for HRP-conjugated IgG-specific antibody (Jackson) and HRP-conjugated IgM-specific antibody. TMB substrates solution was used for measurement. […]
To further test effects of other cytokine or molecules on antibody production, a synthesized TLR7/8 agonist (50 nM and 500 nM) was added to the IVI system in the presence of antigen OVA (2 μg/ml).
An exemplary cytokine, IL1β, was tested. PBMCs were incubated in vitro with OVA, basic, and either some of the known stimulating factors ICOS, CD40L, TLR7/8 agonists or IL1β (in different doses) (1.5*10^^5 cell/well, 96 well plate). After 7 or 14 days, supernatants were harvested, and IgG/IgM antibody production was measured by ELISA assay.

With `Cl.Cl.c1cc(-c2nc3ccc(OCCCN4CCCC4)cc3o2)ccc1OCCCN1CCCC1` [E6446 dihydrochloride] as the molecule, how does the “CD21-sub-type of dendritic cells” value [1] read?
Its value is “inhibited”.

And the IC50 (TLR9)?
Its IC50 is 10 to 30 nM.

What about the “concentration to inhibit R848 relative to IC50 for CpG2006” value (TLR7/8; TLR7/8 versus TLR9) of the same molecule?
The value was 100 fold.

And the “concentration required to inhibit the effect of R848 (TLR7/8 agonist)” value (TLR7/8; data not shown)?
Its value is 2 to 8 µM.

What about the “effect of low concentration E6446 on IgG production with TLR7/8 agonist” value (PBMCs; E6446 0.02 uM and 0.2 uM, 14-day cultures, OVA+IL2+IL21) of the same molecule?
Its value is “promotes the effects of TLR7/8 agonist on antibody IgG production”.

What about the “effect of high concentration E6446 on IgG and IgM production with TLR7/8 agonist” value (PBMCs; E6446 10 uM, 7-day and 14-day cultures) of the same molecule?
Its value is “reverses the effects of TLR7/8 agonist”.
